# Test results published in patent US20100197584A1, “USE OF CURCUMIN TO BLOCK BRAIN TUMOR FORMATION IN MICE” (Research Foundations of the City University of- New York, priority 2007, published 2010).
# How the values were obtained:
# Type in all cases: cell-based
# [1] = tested on: A549 (human lung cancer) cells; assay: Caspase-3/7 assay in A549 cells; conditions: 20 μM and 50 μM, 48 h (FIG. 5)
# Procedure: (§1) Cells. B16F10 (mouse melanoma), GL261 (mouse glioma), HOG (human oligodendroglioma), A549 (human lung cancer), and […] (mouse neuroblastoma) cells were cultured separately in DMEM containing 10% (v/v) fetal bovine serum and 1% (v/v) penicillin-streptomycin (PS) and allowed to grow to 40% confluence in a 96-well plate. Curcumin Treatment. Two hours before drug treatment, the medium in each well was replaced with 200 μl Neurobasal medium supplemented with 2% (v/v) B27 and 1% (v/v) PS (Drug-treatment Medium). A stock solution (40 mM) of curcumin was prepared in sterile dimethyl sulfoxide (DMSO) (Example 1). Through serial dilution of each stock solution in Drug-treatment Medium, the following concentrations were obtained: 20 μM and 50 μM (for caspase 3/7 assays) or 25 μM and 50 μM (for MTT assays). Drug-treatment Medium in each well was aspirated, and a drug solution of each concentration or carrier-containing medium (control) was added to triplicate wells of cells (50 μl/well). […] Additionally, the background absorbance was determined from parallel wells containing only the Drug-treatment Medium plus a particular concentration of the drug (no cells). […] Fluorescence in each well was measured using the FLx 800 plate reader (Bio-Tek Instruments, Winooski, Vt.) set at 485/20 nm excitation and 528/20 nm emission wavelengths and the sensitivity of 70. […]
# [2] = tested on: HOG (human oligodendroglioma) cells; assay: Caspase-3/7 assay in HOG cells; conditions: 20 μM and 50 μM, 48 h or 96 h (FIG. 3)
# Procedure: as §1
# [3] = tested on: GL261 (mouse glioma) cells; assay: Cell viability assay using MTT, GL261; conditions: 25 μM and 50 μM, 48 h or 96 h, versus control cells (FIG. 6b)
# Procedure: Cells. B16F10 (mouse melanoma), GL261 (mouse glioma), HOG (human oligodendroglioma), A549 (human lung cancer), and N18 (mouse neuroblastoma) cells were cultured separately in DMEM containing 10% (v/v) fetal bovine serum and 1% (v/v) penicillin-streptomycin (PS) and allowed to grow to 40% confluence in a 96-well plate.
# Curcumin Treatment. Two hours before drug treatment, the medium in each well was replaced with 200 μl Neurobasal medium supplemented with 2% (v/v) B27 and 1% (v/v) PS (Drug-treatment Medium). A stock solution (40 mM) of curcumin was prepared in sterile dimethyl sulfoxide (DMSO) (Example 1). Through serial dilution of each stock solution in Drug-treatment Medium, the following concentrations were obtained: 20 μM and 50 μM (for caspase 3/7 assays) or 25 μM and 50 μM (for MTT assays). […] Additionally, the background absorbance was determined from parallel wells containing only the Drug-treatment Medium plus a particular concentration of the drug (no cells).
# Cell Viability Assay Using MTT (3-(4,5-Dimethylthiazolyl-2)-2,5-Diphenyltetrazolium Bromide). […] Absorbance was measured at 570 nm using a 96-well multi scanner auto-reader with the extraction buffer used as blank. For curcumin samples, the absorbance obtained from the corresponding curcumin plus medium samples was subtracted.
smiles,measurement,setting,value
COc1cc(/C=C/C(=O)CC(=O)/C=C/c2ccc(O)c(OC)c2)ccc1O [curcumin],caspase-3/7 activity,[1],increased
same,caspase-3/7 activity,[2],increased
same,cell viability (MTT),[3],dramatic decrease
